Experimental data: ChEMBL document CHEMBL1777722, “Design and synthesis of 5,6-fused heterocyclic amides as Raf kinase inhibitors” (Bioorg Med Chem Lett, 2011)
Calls of active or inactive are those of the source. No cut-off for these calls is given here.

What was measured:
[1] = molecular target: T1, Serine/threonine-protein kinase B-raf (Homo sapiens, UniProt P15056, V600E); test: Inhibition of B-Raf V599E mutant assessed as phosphorylation of MEK1/2 by ELISA
[2] = molecular target: RAF proto-oncogene serine/threonine-protein kinase (Homo sapiens, UniProt P04049); test: Inhibition of c-Raf assessed as phosphorylation of MEK1/2 by ELISA
Chain of RAF proto-oncogene serine/threonine-protein kinase (P04049 whole entry): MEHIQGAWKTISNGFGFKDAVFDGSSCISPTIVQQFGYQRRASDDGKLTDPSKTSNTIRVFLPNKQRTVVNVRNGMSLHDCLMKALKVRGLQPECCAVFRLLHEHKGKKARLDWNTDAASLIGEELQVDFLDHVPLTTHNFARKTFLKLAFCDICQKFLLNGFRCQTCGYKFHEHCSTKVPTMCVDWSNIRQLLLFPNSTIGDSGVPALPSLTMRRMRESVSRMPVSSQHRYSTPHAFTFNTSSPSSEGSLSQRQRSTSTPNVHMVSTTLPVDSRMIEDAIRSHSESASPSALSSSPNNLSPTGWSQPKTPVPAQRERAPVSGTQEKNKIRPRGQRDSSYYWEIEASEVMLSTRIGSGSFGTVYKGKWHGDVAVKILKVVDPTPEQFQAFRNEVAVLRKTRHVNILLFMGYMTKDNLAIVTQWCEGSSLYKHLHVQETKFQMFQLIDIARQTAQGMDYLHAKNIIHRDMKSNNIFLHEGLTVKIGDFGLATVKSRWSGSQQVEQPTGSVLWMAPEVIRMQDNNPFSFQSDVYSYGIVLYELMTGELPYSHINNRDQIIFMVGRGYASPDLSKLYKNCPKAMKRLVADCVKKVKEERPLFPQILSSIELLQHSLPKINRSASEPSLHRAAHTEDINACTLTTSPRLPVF

[3] = molecular target: Proto-oncogene tyrosine-protein kinase receptor Ret (Homo sapiens) (UniProt P07949); test: Inhibition of Ret
[4] = molecular target: Tyrosine-protein kinase ABL1 (Homo sapiens) (UniProt P00519); test: Inhibition of cABL
[5] = molecular target: Receptor-type tyrosine-protein kinase FLT3 (Homo sapiens) (UniProt P36888); test: Inhibition of Flt3
Chain of Receptor-type tyrosine-protein kinase FLT3 (Homo sapiens) (P36888 whole entry): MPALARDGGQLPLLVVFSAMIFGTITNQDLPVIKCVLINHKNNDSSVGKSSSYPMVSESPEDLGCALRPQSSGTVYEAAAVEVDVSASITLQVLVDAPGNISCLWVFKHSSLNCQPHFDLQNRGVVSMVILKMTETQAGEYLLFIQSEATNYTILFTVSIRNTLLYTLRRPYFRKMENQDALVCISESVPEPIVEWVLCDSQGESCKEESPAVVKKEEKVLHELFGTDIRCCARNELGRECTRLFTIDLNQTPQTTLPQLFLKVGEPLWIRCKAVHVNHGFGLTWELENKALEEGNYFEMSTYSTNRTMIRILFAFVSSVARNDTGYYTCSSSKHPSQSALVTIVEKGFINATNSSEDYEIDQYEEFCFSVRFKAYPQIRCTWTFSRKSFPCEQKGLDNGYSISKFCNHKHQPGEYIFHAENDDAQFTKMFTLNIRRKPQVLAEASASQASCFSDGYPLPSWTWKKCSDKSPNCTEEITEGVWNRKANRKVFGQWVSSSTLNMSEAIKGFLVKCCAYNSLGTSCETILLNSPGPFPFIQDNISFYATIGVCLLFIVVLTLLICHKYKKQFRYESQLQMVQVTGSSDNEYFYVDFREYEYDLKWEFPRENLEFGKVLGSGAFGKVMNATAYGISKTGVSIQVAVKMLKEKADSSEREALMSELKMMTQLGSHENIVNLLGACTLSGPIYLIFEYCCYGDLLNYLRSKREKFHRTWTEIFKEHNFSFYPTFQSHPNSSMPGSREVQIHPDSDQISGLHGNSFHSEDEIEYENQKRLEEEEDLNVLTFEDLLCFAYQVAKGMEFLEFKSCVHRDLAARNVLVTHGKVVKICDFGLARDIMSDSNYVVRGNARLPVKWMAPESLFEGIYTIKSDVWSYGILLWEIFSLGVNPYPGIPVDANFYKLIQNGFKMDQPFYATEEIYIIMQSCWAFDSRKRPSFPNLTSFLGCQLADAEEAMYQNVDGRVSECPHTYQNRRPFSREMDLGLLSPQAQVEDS

[6] = molecular target: T1, Serine/threonine-protein kinase B-raf; test: Inhibition of BRAF V600E mutant-mediated ERK phosphorylation in human SKMEL-28 cells by immunoblotting method; format: cell-based, MEL-28
[7] = molecular target: Macrophage colony-stimulating factor 1 receptor (Homo sapiens) (UniProt P07333); test: Inhibition of CSFR1
Chain of Macrophage colony-stimulating factor 1 receptor (Homo sapiens) (P07333 whole entry): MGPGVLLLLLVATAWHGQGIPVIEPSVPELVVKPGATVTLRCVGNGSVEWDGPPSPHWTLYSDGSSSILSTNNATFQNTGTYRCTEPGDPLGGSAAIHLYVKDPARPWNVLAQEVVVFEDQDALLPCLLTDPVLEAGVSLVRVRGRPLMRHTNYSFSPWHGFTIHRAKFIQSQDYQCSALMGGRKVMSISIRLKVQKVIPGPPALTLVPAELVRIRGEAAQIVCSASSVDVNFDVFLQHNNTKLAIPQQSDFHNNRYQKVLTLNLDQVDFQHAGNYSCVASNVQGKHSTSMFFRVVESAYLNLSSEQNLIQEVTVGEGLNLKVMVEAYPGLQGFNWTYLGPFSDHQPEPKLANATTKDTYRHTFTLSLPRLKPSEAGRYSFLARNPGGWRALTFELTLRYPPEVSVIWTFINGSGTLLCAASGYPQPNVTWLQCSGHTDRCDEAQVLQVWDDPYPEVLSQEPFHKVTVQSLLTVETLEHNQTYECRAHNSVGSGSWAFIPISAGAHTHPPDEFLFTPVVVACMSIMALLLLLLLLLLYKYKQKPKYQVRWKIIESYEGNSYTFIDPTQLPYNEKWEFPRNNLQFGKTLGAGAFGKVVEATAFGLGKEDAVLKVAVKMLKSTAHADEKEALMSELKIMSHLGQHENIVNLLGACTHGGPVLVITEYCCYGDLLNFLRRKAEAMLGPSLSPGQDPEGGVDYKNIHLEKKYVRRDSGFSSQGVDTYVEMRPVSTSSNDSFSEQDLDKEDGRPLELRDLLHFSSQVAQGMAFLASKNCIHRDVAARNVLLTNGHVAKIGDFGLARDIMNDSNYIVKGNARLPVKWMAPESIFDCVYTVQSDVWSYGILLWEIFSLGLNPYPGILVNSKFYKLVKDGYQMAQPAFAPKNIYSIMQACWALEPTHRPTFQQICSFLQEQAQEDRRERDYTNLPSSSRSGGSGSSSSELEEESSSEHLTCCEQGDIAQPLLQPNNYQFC

[8] = molecular target: Vascular endothelial growth factor receptor 2 (Homo sapiens) (UniProt P35968); test: Inhibition of KDR
Chain of Vascular endothelial growth factor receptor 2 (Homo sapiens) (P35968 whole entry): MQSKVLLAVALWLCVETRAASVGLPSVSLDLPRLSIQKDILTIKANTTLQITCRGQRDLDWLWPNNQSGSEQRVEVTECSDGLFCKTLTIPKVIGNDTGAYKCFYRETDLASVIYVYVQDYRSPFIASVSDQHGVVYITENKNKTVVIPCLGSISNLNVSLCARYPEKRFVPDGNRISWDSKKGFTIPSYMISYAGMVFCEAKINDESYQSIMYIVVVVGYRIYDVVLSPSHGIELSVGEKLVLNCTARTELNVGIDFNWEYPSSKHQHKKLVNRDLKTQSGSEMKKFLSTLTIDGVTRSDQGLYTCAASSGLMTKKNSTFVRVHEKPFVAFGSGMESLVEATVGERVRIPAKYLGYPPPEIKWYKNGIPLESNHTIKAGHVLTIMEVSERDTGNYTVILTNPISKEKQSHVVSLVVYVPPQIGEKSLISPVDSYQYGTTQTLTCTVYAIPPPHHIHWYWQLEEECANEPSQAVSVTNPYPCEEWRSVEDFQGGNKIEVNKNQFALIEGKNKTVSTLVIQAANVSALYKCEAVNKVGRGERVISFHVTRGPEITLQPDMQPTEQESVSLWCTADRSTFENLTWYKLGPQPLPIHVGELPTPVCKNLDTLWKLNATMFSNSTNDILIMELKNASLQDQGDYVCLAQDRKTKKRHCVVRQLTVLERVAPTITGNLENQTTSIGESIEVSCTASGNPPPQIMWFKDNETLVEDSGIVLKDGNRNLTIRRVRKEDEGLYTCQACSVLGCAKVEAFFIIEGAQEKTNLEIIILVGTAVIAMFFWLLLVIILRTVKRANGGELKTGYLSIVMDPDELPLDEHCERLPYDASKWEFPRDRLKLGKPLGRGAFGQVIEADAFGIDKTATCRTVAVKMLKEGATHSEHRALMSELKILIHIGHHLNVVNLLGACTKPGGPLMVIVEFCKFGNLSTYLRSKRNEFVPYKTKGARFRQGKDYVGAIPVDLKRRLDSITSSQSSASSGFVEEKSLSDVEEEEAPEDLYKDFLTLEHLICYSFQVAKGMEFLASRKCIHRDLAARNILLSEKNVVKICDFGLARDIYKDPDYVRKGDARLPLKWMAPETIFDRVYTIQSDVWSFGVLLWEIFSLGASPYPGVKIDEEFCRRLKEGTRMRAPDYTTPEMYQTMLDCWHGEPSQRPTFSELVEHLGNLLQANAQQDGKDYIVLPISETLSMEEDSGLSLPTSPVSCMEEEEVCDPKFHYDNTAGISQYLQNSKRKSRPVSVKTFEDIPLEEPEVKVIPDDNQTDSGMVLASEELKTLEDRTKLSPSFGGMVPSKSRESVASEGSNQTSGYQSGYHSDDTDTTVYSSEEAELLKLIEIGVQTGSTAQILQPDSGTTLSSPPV

Mus musculus = test: Volume of distribution in mouse at 20 mg/kg, po administered as single dose; format: ADME, organism-based; parameters: dose 20 mg/kg, route oral; details: in vivo
[9] = Oral bioavailability in mouse at 20 mg/kg administered as single dose; format: ADME, organism-based; details: in vivo
[10] = Half life in mouse at 20 mg/kg, po administered as single dose; format: ADME, organism-based; parameters: dose 20 mg/kg, route oral; details: in vivo
[11] = Clearance in mouse at 20 mg/kg, po administered as single dose; format: ADME, organism-based; parameters: dose 20 mg/kg, route oral; details: in vivo

T1 sequence (P15056 2-766 V600E limits assumed): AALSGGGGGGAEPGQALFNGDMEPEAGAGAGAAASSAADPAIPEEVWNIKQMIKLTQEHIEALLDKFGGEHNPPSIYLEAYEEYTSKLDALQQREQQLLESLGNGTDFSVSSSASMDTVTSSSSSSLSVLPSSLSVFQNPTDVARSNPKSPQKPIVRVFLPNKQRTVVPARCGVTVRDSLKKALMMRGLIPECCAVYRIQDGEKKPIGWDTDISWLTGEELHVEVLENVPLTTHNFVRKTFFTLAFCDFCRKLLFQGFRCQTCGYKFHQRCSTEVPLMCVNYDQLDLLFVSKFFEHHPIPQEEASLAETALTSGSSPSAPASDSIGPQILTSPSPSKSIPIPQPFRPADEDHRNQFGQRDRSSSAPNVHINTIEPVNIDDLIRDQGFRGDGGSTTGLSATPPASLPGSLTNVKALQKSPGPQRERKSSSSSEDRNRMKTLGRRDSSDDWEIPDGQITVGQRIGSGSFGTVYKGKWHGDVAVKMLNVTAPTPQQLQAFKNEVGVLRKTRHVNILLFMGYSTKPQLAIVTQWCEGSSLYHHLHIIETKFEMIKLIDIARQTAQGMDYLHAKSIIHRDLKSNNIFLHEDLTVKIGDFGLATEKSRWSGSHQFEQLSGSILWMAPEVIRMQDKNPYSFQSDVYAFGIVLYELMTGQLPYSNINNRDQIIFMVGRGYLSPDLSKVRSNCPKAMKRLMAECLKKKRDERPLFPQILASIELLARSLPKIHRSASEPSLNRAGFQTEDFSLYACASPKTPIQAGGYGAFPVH

| IC50 [1] [nM] | IC50 [2] [nM] | EC50 [6] [nM] | Compound | also measured |
| --- | --- | --- | --- | --- |
| 200 | 140 |  | CC(C)c1cccc(Nc2nc3cc(Oc4ccnc(C(=O)NCCN5CCOCC5)c4)ccc3o2)c1 |  |
| 260 | 120 |  | CNC(=O)c1cc(Oc2ccc3oc(Nc4ccccc4Cl)nc3c2)ccn1 |  |
|  | 3 | 1000 | CNC(=O)c1cc(Oc2ccc3oc(Nc4cccc(C(C)C)c4)nc3c2)ccn1 | inhibition [3]: Active; inhibition [4]: Active; inhibition [5]: Active; inhibition [7]: Active; inhibition [8]: Active |
| 130 | 12 |  | CNC(=O)c1cc(Oc2ccc3oc(Nc4ccc(N(C)C)cc4)nc3c2)ccn1 |  |
| 25 | 3 | 10000 | CNC(=O)c1cc(Oc2ccc3oc(Nc4ccc(Br)cc4)nc3c2)ccn1 |  |
| 11 | 2 |  | CCCCc1ccc(Nc2nc3cc(Oc4ccnc(C(=O)NC)c4)ccc3o2)cc1 |  |
| 5 | 1 | 7000 | CCc1ccc(Nc2nc3cc(Oc4ccnc(C(=O)NC)c4)ccc3o2)cc1 | Vd (Mus musculus): 0.082 L/kg; bioavailability [9]: 33%; half-life [10]: 32 min; CL/F [11]: 0.93 mL/min/kg |
| 65 | 9 |  | CCCCc1ccc(Nc2nc3cc(Oc4ccnc(C(=O)NC)c4)ccc3s2)cc1 |  |
| 15 | 4 |  | CNC(=O)c1cc(Oc2ccc3sc(Nc4ccc(Cl)cc4)nc3c2)ccn1 |  |
| 110 | 27 |  | CNC(=O)c1cc(Oc2ccc3oc(Nc4cccc(C(F)(F)F)c4)nc3c2)ccn1 |  |
| 21 | 19 |  | CNC(=O)c1cc(Oc2ccc3oc(Nc4ccc(Cl)cc4)nc3c2)ccn1 |  |
| 580 | 200 |  | CNC(=O)c1cc(Oc2ccc3oc(Nc4ccccc4F)nc3c2)ccn1 |  |
| 340 | 110 |  | CCc1ccccc1Nc1nc2cc(Oc3ccnc(C(=O)NC)c3)ccc2o1 |  |
| 26 | 7 |  | CNC(=O)c1cc(Oc2ccc3sc(Nc4ccc(C)cc4)nc3c2)ccn1 | Vd (Mus musculus): 1.042 L/kg; bioavailability [9]: 90%; half-life [10]: 80 min; CL/F [11]: 14.1 mL/min/kg |
| 680 | 53 |  | CNC(=O)c1cc(Oc2ccc3oc(Nc4ccc(Oc5ccccc5)cc4)nc3c2)ccn1 |  |
| 7 | 2 | > 10000 | CNC(=O)c1cc(Oc2ccc3sc(Nc4ccc(Br)cc4)nc3c2)ccn1 |  |
| 120 |  | 280 | CNC(=O)c1cc(Oc2ccc3c(c2)nc(Nc2cccc(C(C)(C)C)c2)n3C)ccn1 |  |
| 17000 | 7300 |  | CCN1CCN(c2ccc(Nc3nc4cc(Oc5ccnc(C(=O)NC)c5)ccc4o3)cc2)CC1 |  |
| 19 | 3 | 3200 | CNC(=O)c1cc(Oc2ccc3sc(Nc4ccc(C(C)C)cc4)nc3c2)ccn1 |  |
| 18 | 4 |  | CNC(=O)c1cc(Oc2ccc3sc(Nc4ccc(OC(F)(F)F)cc4)nc3c2)ccn1 |  |
| 6 | 1 |  | CNC(=O)c1cc(Oc2ccc3oc(Nc4ccc(C(C)C)cc4)nc3c2)ccn1 |  |
| 4 | 4 | 3700 | CC(C)c1cccc(Nc2nc3cc(Oc4ccnc(C(N)=O)c4)ccc3o2)c1 |  |
| 12 | 2 |  | CNC(=O)c1cc(Oc2ccc3oc(Nc4ccc(OC(F)(F)F)cc4)nc3c2)ccn1 |  |
| 2 | 1 | 2900 | CC(C)(C)c1cccc(Nc2nc3cc(Oc4ccnc(C(N)=O)c4)ccc3s2)c1 |  |
| 240 | 41 | > 10000 | O=C(NCCN1CCOCC1)c1cc(Oc2ccc3sc(Nc4ccc(Br)cc4)nc3c2)ccn1 |  |
| 4 | 1 | 2100 | CNC(=O)c1cc(Oc2ccc3sc(Nc4cccc(C(C)(C)C)c4)nc3c2)ccn1 | inhibition [3]: Active; inhibition [4]: Active; inhibition [5]: Active; inhibition [7]: Active; inhibition [8]: Active |
| 6 | 1 | 1000 | CNC(=O)c1cc(Oc2ccc3oc(Nc4cccc(C(C)(C)C)c4)nc3c2)ccn1 |  |
